Results on 14 compounds are retold here after EPA's ToxValDB 9.5.

The test system of one series is Oryctolagus sp. The following applies: for LD50: acute, dermal.
The subject of series [1] is Rattus norvegicus. The following applies: for LC50 / LD50: acute.
The subject of series [2] is Rattus norvegicus. The following applies: oral.
Series [3] relates to Rattus norvegicus. The following applies: oral, M/F.
The test system of series [4] is Rattus norvegicus. Particulars: Hershberger, duration: 10 days, oral, gavage, Wistar.
Where [5] appears, read: short-term, duration: 28 days, oral, diet, Sprague-Dawley.
[6] abbreviates: short-term, duration: 28 days, gavage, M, Sprague-Dawley, Clinical Observation: Locomotor activity decrease, Salivation + Blood Chemistry: Ch E decrease.
Setting [7] is: subchronic, duration: 90 days, diet, increased liver weight, serum cholesterol, hepatic aminopyrine n-demethylase activity, and alanine transaminase levels.
Setting [8] is: chronic, duration: 2 years, diet, reduced weight gain, organ weight changes, increased mortality.
[9] abbreviates: subchronic, duration: 90 days, oral, diet, Sprague-Dawley.
Where [10] appears, read: chronic, oral, diet, Sprague-Dawley.
Where [11] appears, read: subchronic, duration: 13 weeks, gavage, decreased testis weight and altered spermatogenesis in males. + Increased heart weight in females and males.
The mark [12] stands for this setting: subchronic, duration: 90 days, oral, gavage, Sprague-Dawley.

Several values for one entry are separate records, joined by “and”; a condition that tells them apart may be missing. Equal entries are not always repeated.

Take `Cc1ccc(OP(=O)(Oc2ccc(C)cc2)Oc2ccc(C)cc2)cc1.Cc1cccc(OP(=O)(Oc2cccc(C)c2)Oc2cccc(C)c2)c1.Cc1ccccc1OP(=O)(Oc1ccccc1C)Oc1ccccc1C` [Tris(methylphenyl) phosphate]: the LD50 was greater than 10000 mg/kg in the series with Oryctolagus sp. and greater than 20000 mg/kg in the series with Rattus norvegicus [1] (oral, gavage, Wistar). The LC50 with Rattus norvegicus [1] (Inhalation, Sprague-Dawley) was greater than 5.2 µg/mL; in the series on Rattus norvegicus [1] (inhalation, Wistar) it was less than 200 µg/mL. Besides, in the series with Rattus norvegicus [1] (setting [5]), the “LOAEL (% diet)” value came out at 0.5. In addition, the “NOAEL (% diet)” value in the series on Rattus norvegicus [1] (setting [5]) was found to be 0.1. In the series on Rattus norvegicus [2] (setting [6]), the NOAEL stood at 200 mg/kg-day. Besides, the NOEL in the series with Rattus norvegicus [2] (setting [6]) was less than 40 mg/kg-day; in the series on Rattus norvegicus [2] (subchronic, duration: 13 weeks, diet, F, Fischer 344, Clinical Observation: Emaciation + Body Weight Changes: decrease + Food Consumption: decrease + Hematology: Hct decrease, RBC decrease, Hgb …), 65 mg/kg-day; in the series with Rattus norvegicus [2] (subchronic, duration: 13 weeks, diet, M/F, Fischer 344, Clinical Observation: Emaciation + Body Weight Changes: decrease + Food Consumption: decrease + Hematology: Hct decrease, RBC decrease, Hgb …), less than 86.4 mg/kg-day; with Rattus norvegicus [2] (subchronic, duration: 13 weeks, gavage, M/F, Fischer 344, Body Weight Changes: decrease + Hematology: Hct decrease, Hgb decrease, RBC decrease + Blood Chemistry: Ch E decrease + Absolute Organ …), less than 50 mg/kg-day.

As for `CC(C)(C)[C@H](O)[C@H](Cc1ccc(Cl)cc1)n1cncn1` (racemic) [Paclobutrazol], in the series with Rattus norvegicus [3] (setting [7]), the LEL came out at 62.5 mg/kg-day and the NOEL was 12.5 mg/kg-day.

In the series with Rattus norvegicus [3] (reproduction developmental, reproductive toxicity), `CC(C)=CC1C(C(=O)OCc2coc(Cc3ccccc3)c2)C1(C)C` (stereo not drawn) [Resmethrin] gave an LEL of 25 mg/kg-day.

As for `Nc1ccc(Cl)cc1` [4-Chloroaniline], the LOAEL in the series with Rattus norvegicus [3] (chronic, nonneoplastic lesions of splenic capsule) was 12.5 mg/kg-day.

As for `Clc1cc(Cl)c(Cl)cc1Cl` [1,2,4,5-Tetrachlorobenzene], in the series on Rattus norvegicus [3] (subchronic, kidney lesions), the LOAEL is 3.4 mg/kg-day and the NOAEL amounted to 0.34 mg/kg-day.

In the series with Rattus norvegicus [3] (setting [8]), `CC1=C(C(=O)Nc2ccccc2)SCCO1` [Carboxin] gave an LEL of 30 mg/kg-day and an NOEL of 10 mg/kg-day.

In turn, `CN(C)NC(=O)CCC(=O)O` [Daminozide] gave an NOEL in the series with Rattus norvegicus [3] (reproduction developmental, no effects) of 15 mg/kg-day.

For the compound `COC(=O)Nc1cccc(OC(=O)Nc2cccc(C)c2)c1` [Phenmedipham], in the series on Rattus norvegicus [3] (chronic, duration: 2 years, diet, no effects), the no observed adverse effect level (NOAEL) stood at 25 mg/kg-day.

On to `CC(C)CC(C)Nc1ccc(Nc2ccccc2)cc1` (stereo not drawn) [6PPD], for which the median lethal dose (LD50) in the series with Oryctolagus sp. (occlusive, New Zealand) is greater than 7940 mg/kg; in the series with Rattus norvegicus [1] (oral, Sprague-Dawley) it was greater than 5000 mg/kg; in the series on Rattus norvegicus [1] (oral, gavage, Sprague-Dawley), 3580 mg/kg. For the same compound, the NOAEL in the series on Oryctolagus sp. (reproduction developmental, duration: 13 days, oral, F, New Zealand) is 30 mg/kg-day; in the series with Rattus norvegicus [1] (developmental, duration: 10 days, oral, gavage, Sprague-Dawley) it was greater than 250 mg/kg-day; in the series with Rattus norvegicus [1] (reproduction developmental, duration: 23 weeks, oral, diet, Sprague-Dawley, generation: F0), 100 ppm; in the series on Rattus norvegicus [1] (reproduction developmental, duration: 23 weeks, oral, diet, Sprague-Dawley, generation: F1), 1000 ppm; in the series with Rattus norvegicus [1] (reproduction developmental, duration: 23 weeks, oral, diet, Sprague-Dawley, generation: F2), 1000 ppm; in the series with Rattus norvegicus [1] (reproduction developmental, duration: 10 days, oral, gavage, F, Sprague-Dawley) it was 50 mg/kg-day. In addition, the NOAEL in the series on Rattus norvegicus [1] (reproduction developmental, duration: 21 days, oral, gavage, Sprague-Dawley, generation: F0) was greater than 1000 ppm; with Rattus norvegicus [1] (reproduction developmental, duration: 21 days, oral, gavage, Sprague-Dawley, generation: F1), greater than 1000 ppm; with Rattus norvegicus [1] (setting [9]), 24 mg/kg-day. Further, the LOAEL in the series with Rattus norvegicus [1] (short-term, duration: 4 weeks, inhalation, particle, Sprague-Dawley) was 50 mg/m3.

In the series with Oryctolagus sp. (occlusive, New Zealand), `O=C1c2ccccc2C(=O)N1SC1CCCCC1` [N-(Cyclohexylthio)phthalimide] returned a median lethal dose (LD50) greater than 5010 mg/kg. In the series on Rattus norvegicus [1] (setting [10]), this compound yielded an LOAEL of 150 mg/kg-day and an NOAEL of 50 mg/kg-day.

Regarding `CCCC(c1cc(C(C)(C)C)c(O)cc1C)c1cc(C(C)(C)C)c(O)cc1C` [4,4'-Butane-1,1-diylbis(2-tert-butyl-5-methylphenol)], the LD50 is greater than 7940 mg/kg in the series with Oryctolagus sp. (New Zealand) and greater than 7940 mg/kg with Rattus norvegicus [1] (oral, gavage, Sprague-Dawley). In addition, the NOAEL in the series on Rattus norvegicus [1] (reproduction developmental, duration: 90 days, oral, diet, M, Sprague-Dawley) turned out to be 100 ppm; in the series with Rattus norvegicus [1] (setting [9]), 9.6 mg/kg-day. In the series with Rattus norvegicus [1] (setting [9]), this compound had an LOAEL of 48 mg/kg-day. Besides, the NOEL with Rattus norvegicus [4] (inactive + Negative + Negative + anti-androgenic + negative) and in the series with Rattus norvegicus [4] (inactive + Negative + Negative + anti-androgenic + negative / effects on thyroid at 125 (initial increase in T4 at 5)) was 125 mg/kg-day throughout.

Take `O=C([O-])CF.[Na+]` [Sodium fluoroacetate]: in the series with Rattus norvegicus [3] (setting [11]), the lowest-observed-adverse-effect level (LOAEL) is 0.2 mg/kg-day and the NOAEL is 0.05 mg/kg-day.

Consider `CC(C)C(C)(N)C#N` (stereo not drawn) [2-Amino-2,3-dimethylbutanenitrile], for which the LD50 in the series with Oryctolagus sp. (occlusive, New Zealand) came to 23 mg/kg; in the series on Rattus norvegicus [1] (oral, gavage, Sprague-Dawley), 83 mg/kg. Moreover, the LC50 in the series with Rattus norvegicus [1] (inhalation, Sprague-Dawley) is 422 mg/m3 and 335 mg/m3. Further, in the series with Rattus norvegicus [1] (short-term, duration: 28 days, dermal, occlusive, Charles River (Sprague-Dawley derived)), the NOAEL was determined as 3 mg/kg-day.

On to `O=C(OCC1CCC2OC2C1)C1CCC2OC2C1` (stereo not drawn) [ECC], for which the LD50 with Oryctolagus sp. (occlusive, New Zealand) was greater than 20 mg/kg; in the series with Rattus norvegicus [1] (oral, gavage, Sprague-Dawley), 5000 mg/kg. Further, the NOAEL in the series with Rattus norvegicus [1] (developmental, duration: 14 days, oral, gavage, Sprague-Dawley) was 125 mg/kg-day; in the series with Rattus norvegicus [1] (reproduction developmental, duration: 14 days, oral, gavage, F, Sprague-Dawley) it was 25 mg/kg-day; in the series on Rattus norvegicus [1] (reproduction developmental, duration: 90 days, oral, gavage, Sprague-Dawley, generation: F0), no less than 500 mg/kg-day; in the series with Rattus norvegicus [1] (setting [12]) it was 5 mg/kg-day. For the same compound, the LOAEL in the series on Rattus norvegicus [1] (short-term, duration: 14 days, oral, gavage, Sprague-Dawley) was 100 mg/kg-day; in the series on Rattus norvegicus [1] (setting [12]), 50 mg/kg-day.

In general, LD50 refers to the dose at which mortality reaches 50%. As usually defined, the NOAEL is the highest dose or exposure tested at which no adverse effect was seen. In general, LOAEL refers to the lowest dose or exposure tested at which an adverse effect was seen.
